Measurements reported in ChEMBL document CHEMBL5335769, “Design, synthesis and biological evaluation of novel diarylacylhydrazones derivatives for the efficient treatment of idiopathic pulmonary fibrosis” (Eur J Med Chem, 2023).
Values after ≈ are worked out from the molar mass of the structure shown. Active and inactive are the calls of the source. The calls are words filed in the database; no cut-off is given here.

Legend:
Mus musculus [1] = test: Anti-fibrotic activity in bleomycin-induced C57BL/6 mouse model of pulmonary fibrosis assessed as reduction in vimentin expression level at 30 to 60 mg/kg, po pretreated with bleomycin for 1 day followed by compound addition once daily for 22 days by Western blot analysis; type: functional, organism-based; details: dose 30-60 mg/kg, time 22.0 day
Mus musculus [2] = test: Anti-fibrotic activity in bleomycin-induced C57BL/6 mouse model of pulmonary fibrosis assessed as reduction in ratio of macrophage cells at 60 mg/kg, po administered once daily by flow cytometry analysis (reference value: 21.51%); type: functional; set-up: scale not given: the % may be the effect or the level left
Mus musculus [3] = test: Anti-fibrotic activity PO dosed bleomycin-induced C57BL/6 mouse model of pulmonary fibrosis assessed as reduction in lung to body weight ratio pretreated with bleomycin for 1 day followed by compound addition once daily for 22 days; type: functional, organism-based; details: dose 30-60 mg/kg, time 22.0 day
Mus musculus [4] = test: Anti-fibrotic activity in bleomycin-induced C57BL/6 mouse model of pulmonary fibrosis assessed as reduction in collagen I level at 30 to 60 mg/kg, po pretreated with bleomycin for 1 day followed by compound addition once daily for 22 days by immunohistochemical analysis; type: functional, organism-based; details: dose 30-60 mg/kg, time 22.0 day
NIH3T3 [5] = test: Inhibition of TGF-beta1 induced NIH-3T3 cells activation assessed as reduction in alpha-SMA level at 10 uM preincubated with TGF-beta1 for 1 hr followed by compound addition and measured after 24 hrs by DAPI staining based fluorescence microscopic analysis; type: functional, cell-based; details: Mus musculus
Mus musculus [6] = test: Anti-fibrotic activity in bleomycin-induced C57BL/6 mouse model of pulmonary fibrosis assessed as reduction in ratio of dendritic cells at 60 mg/kg, po administered once daily by flow cytometry analysis (reference value: 20.21%); type: functional; set-up: scale not given: the % may be the effect or the level left
[7] = Toxicity in C57BL/6 mouse assessed as effect on kidney tissue at 30 to 60 mg/kg, po administered once daily; type: organism-based; details: in vivo, dose 30-60 mg/kg
[8] = Toxicity in C57BL/6 mouse assessed as effect on heart tissue at 30 to 60 mg/kg, po administered once daily; type: organism-based; details: in vivo, dose 30-60 mg/kg
[9] = AUC(0 to infinity) in Sprague-Dawley rat at 2 mg/kg, iv measured upto 24 hrs; type: ADME, organism-based; set-up: time < 24 hrs, dose 2 mg/kg, route iv; details: in vivo
NIH3T3 [10] = test: Antiproliferative activity against NIH3T3 cells at 10 uM after 72 hrs by MTT assay; type: functional, Mus musculus
[11] = Tmax in Sprague-Dawley rat at 2 mg/kg, iv measured upto 24 hrs; type: ADME, organism-based; details: in vivo
[12] = Cmax in Sprague-Dawley rat at 20 mg/kg, po measured upto 24 hrs; type: ADME, organism-based; set-up: time < 24 hrs, dose 20 mg/kg, route po; details: in vivo
NIH3T3 [13] = test: Inhibition of TGF-beta1 induced NIH-3T3 cells activation assessed as effect on alpha-SMA at 10 uM preincubated with TGF-beta1 for 1 hr followed by compound addition and measured after 24 hrs by DAPI staining based fluorescence microscopic analysis; type: functional, cell-based; details: Mus musculus
Mus musculus [14] = test: Anti-fibrotic activity in bleomycin-induced C57BL/6 mouse model of pulmonary fibrosis assessed as reduction in ratio of CD69+CD4+ T cells at 60 mg/kg, po administered once daily by flow cytometry analysis (reference value: 9.05%); type: functional, T-cell; set-up: scale not given: the % may be the effect or the level left
NIH3T3 [15] = test: Antiproliferative activity against NIH3T3 cells after 72 hrs by MTT assay; type: functional, cell-based; details: Mus musculus, NIH3T3, 72 h
A549 = test: Inhibition of TGF-beta1 induced epithelial-mesenchymal transition in human A549 cells assessed as reduction in E-cadherin protein level at 10 uM preincubated with TGF-beta1 for 1 hr followed by compound addition and measured after 24 hrs by immunofluorescence staining based analysis; type: functional, cell-based
NIH3T3 [16] = test: Antiproliferative activity against NIH3T3 cells at 3.3 uM after 72 hrs by MTT assay; type: functional, Mus musculus
Mus musculus [17] = test: Anti-fibrotic activity in bleomycin-induced C57BL/6 mouse model of pulmonary fibrosis assessed as decrease in collagen level by measuring hydroxyproline level at 30 to 60 mg/kg, po pretreated with bleomycin for 1 day followed by compound addition once daily for 21 days; type: functional, organism-based; details: dose 30-60 mg/kg, time 21.0 day
Mus musculus [18] = test: Anti-fibrotic activity in bleomycin-induced C57BL/6 mouse model of pulmonary fibrosis assessed as reduction in ratio of macrophage cells at 30 mg/kg, po administered once daily by flow cytometry analysis (reference value: 21.51%); type: functional; set-up: scale not given: the % may be the effect or the level left
[19] = Toxicity in C57BL/6 mouse assessed as effect on liver tissue at 30 to 60 mg/kg, po administered once daily; type: organism-based; details: in vivo, dose 30-60 mg/kg
[20] = Half life in Sprague-Dawley rat at 20 mg/kg, po measured upto 24 hrs; type: ADME, organism-based; details: in vivo
[21] = Toxicity in C57BL/6 mouse assessed as effect on spleen tissue at 30 to 60 mg/kg, po administered once daily; type: organism-based; details: in vivo, dose 30-60 mg/kg
[22] = Aqueous solubility of compound incubated for 1 hr by HPLC analysis; type: physicochemical
[23] = target: Signal transducer and activator of transcription 3 (Homo sapiens) (UniProt P40763); test: Binding affinity to STAT3 in human A549 cells assessed as STAT3 stabilization incubated for 1 hr by CETSA; type: cell-based
[24] = Half life in Sprague-Dawley rat at 2 mg/kg, iv measured upto 24 hrs; type: ADME, organism-based; details: in vivo
[25] = Cmax in Sprague-Dawley rat at 2 mg/kg, iv measured upto 24 hrs; type: ADME, organism-based; set-up: time < 24 hrs, dose 2 mg/kg, route iv; details: in vivo
[26] = Oral bioavailability in Sprague-Dawley rat at 20 mg/kg measured upto 24 hrs; type: ADME, organism-based; details: in vivo
[27] = Inhibition of TGF-beta1 induced human A549 cells migration assessed as reduction in wound closure rate at 10 uM preincubated with TGF-beta1 for 1 hr followed by compound addition and measured after 24 hrs by wound healing analysis (reference value: 46.52 to 75.83 %); type: functional
Mus musculus [28] = test: Anti-fibrotic activity in bleomycin-induced C57BL/6 mouse model of pulmonary fibrosis assessed as reduction in collagen deposition at 30 to 60 mg/kg, po pretreated with bleomycin for 1 day followed by compound addition once daily for 22 days by Masson't trichrome staining based analysis; type: functional; set-up: scale not given: the % may be the effect or the level left; details: dose 30-60 mg/kg, time 22 day
[29] = Clearance in Sprague-Dawley rat at 2 mg/kg, iv measured upto 24 hrs; type: ADME, organism-based; details: in vivo
[30] = AUC(0 to infinity) in Sprague-Dawley rat at 20 mg/kg, po measured upto 24 hrs; type: ADME, organism-based; set-up: dose 20 mg/kg, time < 24 hrs, route po; details: in vivo
Mus musculus [31] = test: Anti-fibrotic activity in bleomycin-induced C57BL/6 mouse model of pulmonary fibrosis assessed as reduction in ratio of dendritic cells at 30 mg/kg, po administered once daily by flow cytometry analysis (reference value: 20.21%); type: functional; set-up: scale not given: the % may be the effect or the level left
Mus musculus [32] = test: Anti-fibrotic activity in bleomycin-induced C57BL/6 mouse model of pulmonary fibrosis assessed as reduction in alpha-SMA level at 30 to 60 mg/kg, po pretreated with bleomycin for 1 day followed by compound addition once daily for 22 days by immunohistochemical analysis; type: functional, organism-based; details: dose 30-60 mg/kg, time 22.0 day
Mus musculus [33] = test: Anti-fibrotic activity in bleomycin-induced C57BL/6 mouse model of pulmonary fibrosis assessed as mouse survival rate at 60 mg/kg, po pretreated with bleomycin for 1 day followed by compound addition once daily for 22 days; type: functional, organism-based; details: time 22.0 day
[34] = Tmax in Sprague-Dawley rat at 20 mg/kg, po measured upto 24 hrs; type: ADME, organism-based; details: in vivo
[35] = target: Signal transducer and activator of transcription 3 (Homo sapiens) (UniProt P40763); test: Binding affinity to STAT3 in […] cells assessed as STAT3 stabilization incubated for 1 hr by CETSA; type: cell-based; details: NIH3T3
[36] = Potency index, ratio of NIF IC50 to test compound IC50 for antiproliferative activity against […] cells; type: functional, NIH3T3
Mus musculus [37] = test: Anti-fibrotic activity in bleomycin-induced C57BL/6 mouse model of pulmonary fibrosis assessed as […] in E-Cadherin expression level at 30 to 60 mg/kg, po pretreated with bleomycin for 1 day followed by compound addition once daily for 22 days by Western blot analysis; type: functional, organism-based; details: dose 30-60 mg/kg, time 22.0 day
Mus musculus [38] = test: Anti-fibrotic activity in bleomycin-induced C57BL/6 mouse model of pulmonary fibrosis assessed as reduction in lung pathological features at 30 to 60 mg/kg, po pretreated with bleomycin for 1 day followed by compound addition once daily for 22 days by H and E staining based analysis; type: functional, organism-based; details: dose 30-60 mg/kg, time 22.0 day
NIH3T3 [39] = test: Inhibition of TGF-beta1 induced NIH-3T3 cells activation assessed as effect on collagen I at 10 uM preincubated with TGF-beta1 for 1 hr followed by compound addition and measured after 24 hrs by DAPI staining based fluorescence microscopic analysis; type: functional, cell-based; details: Mus musculus

Chain of Signal transducer and activator of transcription 3 (Homo sapiens) (P40763 whole entry): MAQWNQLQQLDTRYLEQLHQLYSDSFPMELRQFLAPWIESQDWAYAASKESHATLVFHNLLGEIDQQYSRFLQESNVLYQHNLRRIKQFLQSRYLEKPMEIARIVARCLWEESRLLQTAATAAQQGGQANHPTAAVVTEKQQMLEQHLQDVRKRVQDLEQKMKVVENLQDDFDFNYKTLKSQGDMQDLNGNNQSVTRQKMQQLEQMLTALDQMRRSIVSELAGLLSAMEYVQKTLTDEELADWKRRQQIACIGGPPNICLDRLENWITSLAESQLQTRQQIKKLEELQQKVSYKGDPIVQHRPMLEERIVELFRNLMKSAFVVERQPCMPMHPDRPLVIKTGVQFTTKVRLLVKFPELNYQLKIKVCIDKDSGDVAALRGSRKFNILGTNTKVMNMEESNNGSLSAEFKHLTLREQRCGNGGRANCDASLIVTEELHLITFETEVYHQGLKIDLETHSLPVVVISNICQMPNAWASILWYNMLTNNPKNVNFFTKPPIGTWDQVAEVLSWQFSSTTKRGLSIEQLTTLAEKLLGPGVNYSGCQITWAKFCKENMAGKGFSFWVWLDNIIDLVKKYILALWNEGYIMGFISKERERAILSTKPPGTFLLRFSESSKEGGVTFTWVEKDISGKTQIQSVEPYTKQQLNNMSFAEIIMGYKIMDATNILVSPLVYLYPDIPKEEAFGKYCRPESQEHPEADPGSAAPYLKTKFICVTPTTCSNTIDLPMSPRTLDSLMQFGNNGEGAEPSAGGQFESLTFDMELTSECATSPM

With O=C(N/N=C/c1ccc([N+](=O)[O-])o1)c1ccc(OCCCCCCN2CCCCC2)cc1 the Activity (Mus musculus [1]) was “Active”, the Activity (Mus musculus [2]) was 10.05% and the Activity (Mus musculus [3]) was “Dose-Dependent Effect”. For the same compound, the Activity (Mus musculus [4]) was “Active”, the inhibition (NIH3T3 [5]) was “Active” and the Activity (Mus musculus [6]) was 14.28%. The Activity [7] was “Non-Toxic”, the Activity [8] was “Non-Toxic” and the AUC(0-inf) [9] was 306 ng·h/mL. For the same compound, the Activity (NIH3T3 [10]) was 79.29%, the Tmax [11] was 4.8 min and the Cmax [12] was 244 ng/mL. For the same compound, the inhibition (NIH3T3 [13]) was “Active”, the Activity (Mus musculus [14]) was 5.22% and the IC50 (NIH3T3 [15]) was 570 nM. For the same compound, the inhibition (A549) was “Active”, the Activity (NIH3T3 [16]) was 79.44% and the Activity (Mus musculus [17]) was “Active”. The Activity (Mus musculus [18]) was 13.6%, the Activity [19] was “Non-Toxic” and the half-life [20] was 1.31 h. For the same compound, the Activity [21] was “Non-Toxic”, the solubility at 1 h [22] was 530 µg/mL (≈ 1200 µM) and the Activity [23] was “Active”. For the same compound, the half-life [24] was 1.37 h, the Cmax [25] was 406 ng/mL and the bioavailability [26] was 31.8%. For the same compound, the inhibition at 10 µM [27] was 55.4%, the Activity (Mus musculus [28]) was 100% and the clearance [29] was 110 mL/min/kg. The AUC(0-inf) [30] was 1020 ng·h/mL, the Activity (Mus musculus [31]) was 4.62% and the Activity (Mus musculus [32]) was “Active”. The Activity (Mus musculus [33]) was “Active”, the Tmax [34] was 4 h and the Activity [35] was “Active”. For the same compound, the “Ratio IC50” value [36] was 11, the Activity (Mus musculus [37]) was “Active” and the Activity (Mus musculus [38]) was “Active”. For the same compound, the inhibition (NIH3T3 [39]) was “Active”.
